Results taken from patent publication US20140271770A1, “Methods And Compositions For Treating Post-Operative Pain Comprising Clonidine” (WARSAW ORTHOPEDIC, INC., priority 2013, published 2014).

Experiment: 14 day pharmacokinetic study, clonidine strips implanted in intermuscular pockets, plasma clonidine by LC/MS/MS
Assay type: in vivo, beagle dogs
Conditions: mannitol as excipient in the clonidine strips
From the text: Clonidine strips were surgically implanted in intermuscular pockets in beagle dogs to evaluate the in vivo clonidine elution and plasma clonidine concentrations. Four male and four female dogs were divided into two groups of two (per sex). Group 1 received 6 strips of formulation 640-51 (5% clonidine HCl, 5% mannitol, 60:40 LCL 5A polymer, micronized API) and Group 2 received 6 strips of formulation 640-73 (4% clonidine HCl, 7.5% mannitol, 60:40 LCL 5A polymer, milled 25 micron API).
Blood was drawn at 30 minutes and 1, 2, 4, 8, and 24 hours post-implant. Blood was then drawn daily through day 7, and again at days 10 and 14. The blood was processed to plasma and the clonidine concentration in the plasma was determined by high performance liquid chromatography and tandem mass spectroscopy (LC/MS/MS).

## OC[C@@H](O)[C@@H](O)[C@H](O)[C@H](O)CO [Mannitol]
  effect on drug release within the first 72 hours: speeds up drug release
